Laboratory results: patent US9963462B2 (priority 2015, dated 2018)
pIC50: −log10 of the molar value.

Tests used:
[1] = molecular target: SNAP-hSPR (sepiapterin reductase, SPR) (Homo sapiens, UniProt P35270); experiment: biochemical; format: binding; details: terbium labelled SNAP-hSPR / SSZ labelled SNAP-EGFP; read-out: hTR-FRET IC50
[2] = tested on: BH4 levels in SK-N-BE (2) cells; experiment: SKN-N-BE (2) cellular assay, BH4 levels by LC-MS; format: cell-based; details: Homo sapiens, SKNBE2, read-out: SK-N-BE(2) IC50, SK-N-BE (2) cells, BH4 levels by LC-MS
[3] = tested on: BH4 production in human peripheral blood mononuclear cells (PBMCs); experiment: hPBMC assay, inhibition of BH4 production by LC-MS (anti-CD3/anti-CD28 stimulated); format: cell-based; details: PBMC, read-out: hPBMC IC50
Experimental: hPBMC Assay: PBMCs were either purchased or isolated from fresh human blood and used either as a fresh preparation or frozen for later use. The assay system was prepared by pre-treating the assay plates overnight with a solution containing anti-human CD3 antibody. Human PBMCs were suspended in assay medium and plated into the assay plates at a density of 1-4×10^5 cells per well. The desired concentration of the test compound was added to each well. A solution of human anti-CD28 antibody was also added to each well. Plates were incubated for 12-48 hours at 37° C. and 5% CO2. Assay plates were centrifuged for 5-15 minutes at 1-3000 RMP and supernatants were removed. The cells were lysed, sealed and used directly or frozen at −80° C. LC-MS was used to quantify the amount of inhibition of BH4 production.
PBMCs were either purchased or isolated from fresh human blood and used either as a fresh preparation or frozen for later use. The assay system was prepared by pre-treating the assay plates overnight with a solution containing anti-human CD3 antibody. Human PBMCs were suspended in assay medium and plated into the assay plates at a density of 1-4×10^5 cells per well. The desired concentration of the test compound was added to each well. A solution of human anti-CD28 antibody was also added to each well. Plates are incubated for 12-48 hours at 37° C. and 5% CO2. Assay plates were centrifuged for 5-15 minutes at 1-3000 RMP and supernatants were removed. The cells were lysed, sealed and used directly or frozen at −80° C.

SNAP-hSPR (sepiapterin reductase, SPR), sequence (P35270 whole entry): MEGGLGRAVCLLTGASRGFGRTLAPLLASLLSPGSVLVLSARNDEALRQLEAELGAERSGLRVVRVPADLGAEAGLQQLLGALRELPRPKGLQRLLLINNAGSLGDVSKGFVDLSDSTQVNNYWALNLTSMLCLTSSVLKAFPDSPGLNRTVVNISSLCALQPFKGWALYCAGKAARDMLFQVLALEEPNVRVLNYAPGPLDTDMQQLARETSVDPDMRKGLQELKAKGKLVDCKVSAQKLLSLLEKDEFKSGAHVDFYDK

| Structure (SMILES) | pIC50 [1] | pIC50 [2] | pIC50 [3] |
| --- | --- | --- | --- |
| Cc1c(C(=O)N2CC3(C2)CC(F)(F)C3)cnn1-c1nn2cccc2c(=O)[nH]1 [Q-0816] | 9.00 | 6.22 | 6.77 |
| Cc1c(C(=O)N2CCC3(CC2)CC(F)(F)C3)cnn1-c1nn2cccc2c(=O)[nH]1 [Q-0690] | 8.70 | 6.70 | 7.14 |
| CCC(=C1CCN(C(=O)c2cnn(-c3nn4cccc4c(=O)[nH]3)c2C)CC1)C(F)(F)F [Q-1064] | 8.70 | 6.70 | 6.66 |
| Cc1c(C(=O)N2CCC(C(C)(O)C(F)(F)F)CC2)cnn1-c1nn2cccc2c(=O)[nH]1 (stereo not drawn) [Q-0782] | 9.00 | 7.00 | 7.42 |
| Cc1c(C(=O)N2CC(N3CCC(F)(F)C3)C2)cnn1-c1nn2cccc2c(=O)[nH]1 [Q-0812] | 8.52 | 6.00 | 6.82 |
| Cc1c(C(=O)N2C3CCC2CC(F)(F)C3)cnn1-c1nn2cccc2c(=O)[nH]1 [Q-0910] | 8.70 | 6.30 | 7.13 |
| O=C(c1cnn(-c2nn3cccc3c(=O)[nH]2)c1)N1CCN2CCC[C@@H]2C1 [Q-0703] | 8.40 | 6.22 | 6.72 |
| C/C=C(/C1CCN(C(=O)c2cnn(-c3nn4cccc4c(=O)[nH]3)c2C)CC1)C(F)(F)F [Q-1065] | 9.00 | 7.24 | 7.13 |
| Cc1c(C(=O)N2CC3(C2)CC(F)(F)C3)nnn1-c1nn2cccc2c(=O)[nH]1 [Q-1024] | 9.00 | 6.52 | 7.25 |
| Cc1c(C(=O)N2CCC2)cnn1-c1nn2cccc2c(=O)[nH]1 [Q-0794] | 8.00 | 5.46 | 6.39 |
| Cc1c(C(=O)N2CC3CCCC(C2)N3C(=O)OC(C)(C)C)cnn1-c1nn2cccc2c(=O)[nH]1 [Q-0972] | 9.00 | 7.19 | 7.85 |
| Cc1c(C(=O)N2CCN(C3CC3)CC2)cnn1-c1nc2c(c(=O)[nH]1)CCC2 [Q-1022] | 8.70 | 7.00 | 7.39 |
| CCC1(C#N)CCN(C(=O)c2cnn(-c3nn4cccc4c(=O)[nH]3)c2C)CC1 [Q-0586] | 8.70 | 6.70 | 6.89 |
| Cc1c(C(=O)N2CC3(CN(CC(F)(F)F)C3)C2)cnn1-c1nn2cccc2c(=O)[nH]1 [Q-0891] | 8.40 | 6.05 | 6.62 |
| Cc1c(C(=O)N2C3CCC2CC(O)(c2ccccc2)C3)cnn1-c1nn2cccc2c(=O)[nH]1 (stereo not drawn) [Q-0797] | 9.00 | 7.00 | 7.57 |
| CCC1(C#N)CC12CCN(C(=O)c1cnn(-c3nn4cccc4c(=O)[nH]3)c1C)CC2 (stereo not drawn) [Q-1053] | 9.00 | 6.70 | 6.64 |
| COC(=O)c1sccc1S(=O)(=O)N1CCN(C(=O)c2cnn(-c3nn4cccc4c(=O)[nH]3)c2C)CC1 [Q-1875] | 9.00 | – | 6.96 |
| Cc1c(C(=O)N2CCn3cccc3C2)cnn1-c1nn2cccc2c(=O)[nH]1 [Q-1925] | 9.00 | – | 6.77 |
| Cc1c(C(=O)N2CCC(c3nc(-c4ccccn4)cs3)CC2)cnn1-c1nc2c(c(=O)[nH]1)CCC2 [Q-1100] | 9.00 | – | 7.51 |
| C=CCC(C#N)C1CCN(C(=O)c2cnn(-c3nc4c(c(=O)[nH]3)CCC4)c2C)CC1 (stereo not drawn) [Q-1073] | 8.52 | – | 7.26 |
| Cc1c(C(=O)N2CCN(CC(F)(F)F)CC2)cnn1-c1nc2cc[nH]c2c(=O)[nH]1 [Q-1260] | 7.52 | – | 7.09 |

| Structure (SMILES) | pIC50 [1] | pIC50 [2] | pIC50 [3] |
| --- | --- | --- | --- |
| Cc1c(C(=O)N2CCC(C(CO)C(F)(F)F)CC2)cnn1-c1nn2cccc2c(=O)[nH]1 (stereo not drawn) [Q-1228] | 9.00 | – | 7.77 |
| Cc1c(C(=O)N2CCN(c3ncc(-c4cccnc4)o3)CC2)cnn1-c1nn2cccc2c(=O)[nH]1 [Q-1162] | 9.00 | – | 7.02 |
| Cc1c(C(=O)N2CCC(n3ccc(C#N)c3)CC2)cnn1-c1nn2cccc2c(=O)[nH]1 [Q-1250] | 9.00 | – | 7.62 |
| C=C(C1CCN(C(=O)c2cnn(-c3nn4cccc4c(=O)[nH]3)c2C)CC1)C(F)(F)F [Q-1095] | 9.00 | – | 7.57 |
| Cc1c(C(=O)N2CCN(S(=O)(=O)c3cccc4nsnc34)CC2)cnn1-c1nn2cccc2c(=O)[nH]1 [Q-1882] | 8.70 | – | 7.04 |
| Cc1c(C(=O)N2CCN(c3ncc(-c4ccnc(Cl)c4)s3)CC2)cnn1-c1nn2cccc2c(=O)[nH]1 [Q-1236] | 8.22 | – | 7.32 |
| Cc1c(C(=O)N2C3CCC2CC(C(F)(F)F)C3)cnn1-c1nn2cccc2c(=O)[nH]1 (stereo not drawn) [Q-1122] | 9.00 | – | 7.60 |
| Cc1c(C(=O)N2CC3CC(C2)N3C(=O)OC(C)(C)C)cnn1-c1nn2cccc2c(=O)[nH]1 [Q-1170] | 9.00 | – | 6.80 |
| Cc1c(C(=O)N2CCC(CCCF)C2)cnn1-c1nn2cccc2c(=O)[nH]1 (stereo not drawn) [Q-1098] | 9.00 | – | 6.68 |
| CC[C@@H](C#N)C1CCN(C(=O)c2cnn(-c3nc4c(c(=O)[nH]3)CCC4)c2C)CC1 [Q-1072] | 8.70 | – | 7.26 |
| Cc1c(C(=O)N2CCN(S(=O)(=O)c3c(Cl)cccc3Cl)CC2)cnn1-c1nn2cccc2c(=O)[nH]1 [Q-1836] | 9.00 | – | 6.57 |
| Cc1c(C(=O)N2CCN(c3ncc(-c4ccc(F)nc4)s3)CC2)cnn1-c1nn2cccc2c(=O)[nH]1 [Q-1197] | 8.52 | – | 7.59 |
| Cc1c(C(=O)N2CCN(c3nnc(C(F)(F)F)o3)CC2)cnn1-c1nn2cccc2c(=O)[nH]1 [Q-1145] | 8.52 | – | 6.72 |
| Cc1c(C(=O)N2CCN(c3nc(-c4cccc(C(F)(F)F)c4)cs3)CC2)cnn1-c1nn2cccc2c(=O)[nH]1 [Q-1173] | 7.70 | – | 6.54 |
| Cc1c(C(=O)N2CC(N3CCC(F)(F)C3)C2)cnn1-c1nc2[nH]ccc2c(=O)[nH]1 [Q-1254] | 7.00 | – | 6.06 |
| Cc1c(C(=O)N2CCC(c3nc(-c4cccnc4)cs3)CC2)cnn1-c1nn2cccc2c(=O)[nH]1 [Q-1097] | 9.00 | – | 7.62 |
| Cc1c(C(=O)N2CCN(C3CCCC3(F)F)CC2)cnn1-c1nn2cccc2c(=O)[nH]1 (stereo not drawn) [Q-1362] | 9.00 | – | 7.37 |
| Cc1c(C(=O)N2CCN(c3nc(-c4ccc(Cl)nc4)cs3)CC2)cnn1-c1nn2cccc2c(=O)[nH]1 [Q-1179] | 8.70 | – | 6.96 |
| C=C(C1CCN(C(=O)c2cnn(-c3nc4c(c(=O)[nH]3)CCC4)c2C)CC1)C(F)(F)F [Q-1096] | 9.00 | – | 7.74 |
| Cc1c(C(=O)N2CCC(n3cnc(C(F)(F)F)c3)CC2)cnn1-c1nn2cccc2c(=O)[nH]1 [Q-1234] | 8.70 | – | 7.57 |
| Cc1c(C(=O)N2CCc3nc(-c4ccccc4Cl)sc3C2)cnn1-c1nn2cccc2c(=O)[nH]1 [Q-1147] | 8.15 | – | 6.28 |

| Structure (SMILES) | pIC50 [1] | pIC50 [2] | pIC50 [3] |
| --- | --- | --- | --- |
| Cc1c(C(=O)N2CCCN(C3CC3)CC2)cnn1-c1nn2cccc2c(=O)[nH]1 [Q-1205] | 8.52 | – | 7.46 |
| Cc1c(C(=O)N2CCC(n3ccc(S(=O)(=O)C(F)(F)F)c3)CC2)cnn1-c1nn2cccc2c(=O)[nH]1 [Q-1289] | 8.70 | – | 7.15 |
| Cc1c(C(=O)N2CCCN(CCC(F)(F)F)CC2)cnn1-c1nn2cccc2c(=O)[nH]1 [Q-1183] | 8.40 | – | 6.96 |
| CCCC(=O)C1CCN(C(=O)c2cnn(-c3nn4cccc4c(=O)[nH]3)c2C)CC1 [Q-1207] | 9.00 | – | 7.54 |
| Cc1c(C(=O)N2CCN(c3nc(-c4ccccc4C#N)cs3)CC2)cnn1-c1nn2cccc2c(=O)[nH]1 [Q-1172] | 8.52 | – | 6.74 |
| Cc1c(C(=O)N2CCN(S(=O)(=O)c3cccc4ccccc34)CC2)cnn1-c1nn2cccc2c(=O)[nH]1 [Q-1841] | 9.00 | – | 7.06 |
| Cc1nn(-c2nn3cccc3c(=O)[nH]2)cc1C(=O)N1CCN(C2CCC2)CC1 [Q-1241] | 8.70 | – | 7.70 |
| CCC1(C(F)(F)F)CCN(C(=O)c2cnn(-c3nn4cccc4c(=O)[nH]3)c2C)CC1 [Q-1132] | 9.00 | – | 7.40 |
| Cc1c(C(=O)N2CCC(C(=O)N3CCCCC3)(C(F)(F)F)CC2)cnn1-c1nn2cccc2c(=O)[nH]1 [Q-1086] | 9.00 | – | 7.08 |
| Cc1c(C(=O)N2CCC(C(=O)N3CCC3)(C(F)(F)F)CC2)cnn1-c1nn2cccc2c(=O)[nH]1 [Q-1085] | 9.00 | – | 7.20 |
| Cc1c(C(=O)N2CCc3nc(-c4ccc(Cl)cc4)sc3C2)cnn1-c1nn2cccc2c(=O)[nH]1 [Q-1146] | 8.30 | – | 6.42 |
| O=C(c1cn(-c2nn3cccc3c(=O)[nH]2)nn1)N1CCN(C2CCC2)CC1 [Q-1244] | 9.00 | – | 7.44 |
| CCC(=O)C1CCN(C(=O)c2cnn(-c3nc4c(c(=O)[nH]3)CCC4)c2C)CC1 [Q-1113] | 9.00 | – | 7.80 |
| Cc1c(C(=O)Nc2c(C(C)(O)C(F)(F)F)cnn2C(C)C)cnn1-c1nn2cccc2c(=O)[nH]1 (stereo not drawn) [Q-1142] | 9.00 | – | 7.12 |
| Cc1nn(-c2nn3cccc3c(=O)[nH]2)cc1C(=O)N1CC(N2CCC(F)(F)C2)C1 [Q-1243] | 7.70 | – | 7.29 |
| Cc1c(C(=O)N2CCN(c3ncc(-c4ccc(Cl)cc4)o3)CC2)cnn1-c1nn2cccc2c(=O)[nH]1 [Q-1135] | 8.00 | – | 7.35 |
| Cc1c(C(=O)N2CCC(c3nc(-c4ccncc4)cs3)CC2)cnn1-c1nc2c(c(=O)[nH]1)CCC2 [Q-1136] | 8.70 | – | 7.85 |
| Cc1c(C(=O)N2CCN(CC3CCCO3)CC2)cnn1-c1nn2cccc2c(=O)[nH]1 (stereo not drawn) [Q-2016] | 9.00 | – | 7.35 |
| Cc1c(C(=O)N2CCC(c3nc(-c4ccccn4)cs3)CC2)cnn1-c1nn2cccc2c(=O)[nH]1 [Q-1099] | 9.00 | – | 7.22 |
